# What was measured:
# [1] = biological target: T1, human GPR120 (Homo sapiens, UniProt Q5NUL3); test: Human GPR120 Calcium-Release Assay (aequorin luminescence, CHO-K1 cells); type: cell-based; details: pEC50=−log(EC50) from curve fit; short variant of human GPR120 in CHO-K1 with Gα16 and apoaequorin; read-out: Ca2+ pEC50 (converted)
# T1 construct: expressed in transfected cells; host or cells: CHO-K1 coexpressing Gα16 and mitochondrial apoaequorin
# T1 sequence (Q5NUL3 1-361): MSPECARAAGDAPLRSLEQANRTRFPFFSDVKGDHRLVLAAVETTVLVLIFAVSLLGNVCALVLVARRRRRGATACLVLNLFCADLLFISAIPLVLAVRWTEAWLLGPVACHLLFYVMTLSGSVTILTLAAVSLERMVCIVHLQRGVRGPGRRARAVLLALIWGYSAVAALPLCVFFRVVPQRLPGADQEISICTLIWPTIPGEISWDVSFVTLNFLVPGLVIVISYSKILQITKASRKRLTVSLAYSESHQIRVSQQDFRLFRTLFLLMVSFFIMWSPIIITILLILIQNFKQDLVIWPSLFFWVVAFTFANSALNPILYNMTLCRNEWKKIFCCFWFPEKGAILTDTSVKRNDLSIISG
# Source text: This in vitro assay tests compounds' ability to activate heterologously expressed human GPR120 via G-protein coupling leading to generation of inositol 1,4,5-triphosphate and mobilization of intracellular calcium. This functional cellular assay is based on the luminescence of mitochondrial aequorin following intracellular Ca^2+ release. Aequorin is a photoprotein isolated from the jellyfish Aequorea victoria. The active protein is formed in the presence of molecular oxygen from apoaequorin and its cofactor coelenterazine. Binding of Ca^2+ to the active protein induces a conformational change, resulting in oxidation of coelenterazine and subsequent blue luminescence.
# The short variant of the human GPR120 receptor (GenBank accession Number AAI01176) was stably expressed in a CHO-K1 cell line coexpressing Gα16 and mitochondrial apoaequorin.
# Cells were grown to mid-log phase in culture media without antibiotics, were detached with PBS/EDTA, centrifuged and resuspended in assay buffer (DMEM-F12 medium with 15 mM HEPES pH 7.0 and 0.1% protease free BSA) at a concentration of 10^6 cells/mL. Cells were incubated at room temperature for at least 4 hours with 5 μM coelenterazine h.
# Test compounds were dissolved in 100% DMSO to a concentration of 20 mM to provide stock solutions. Serial dilutions were performed from stock solutions in 100% DMSO to obtain intermediate concentrations 200-fold higher than the concentrations to be tested. Each sample was diluted 100-fold into assay buffer. 50 μl of these compound solutions were dispensed into each well of 96-well assay plates. The final concentration of compounds tested in the assay ranged from 5 nM to 100 μM. α-Linolenic acid was used as a reference compound. Each test was performed in duplicate.
# To start the assay, 50 μl of cell suspension were added to each well of the assay plate. The resulting luminescence was recorded using a Hamamatsu Functional Drug Screening System 6000 (FDSS 6000), and raw data were expressed as relative light units (RLU).
# (§1) To determine agonist potencies (EC50 values), non-linear least-squares curve fits of the raw data (RLU) were performed in the GraphPad Prism software package, using the 4-parameter model with variable Hill Slope:
# Reported below in Table 1 are pEC50 values (pEC50=−log(EC50) from curve fit) for representative compounds of Formula I in this assay, Ca2+pEC50.
# [2] = biological target: T2, human GPR120 (Homo sapiens, UniProt Q5NUL3); test: GPR120 β-Arrestin Recruitment Assay (PathHunter, CHO-K1 cells); type: cell-based; details: pEC50=−log(EC50) from curve fit, CHO-K1 cells, 90 min incubation; for EC50: read-out: β-Arr pEC50 (converted)
# T2 construct: host or cells: CHO-K1
# Source text: This in vitro assay tests compounds' ability to activate intracellular signaling via 3-Arrestin recruitment to heterologously expressed human GPR120. This functional cellular assay utilizes enzyme fragment complementation with β-galactosidlase (β-gal) as a functional reporter (DiscoveRx PathlHunter® β-Arrestin assay platform). The human (GPR120 receptor (GenBank accession Number NM_181745) was fused in frame with the small enzyme fragment ProLink™ and co-expressed in CHO-K1 cells with a fusion protein of β-Arrestin 2 and the larger, N-terminal deletion mutant of β-gal. Activation by a GPR120 agonist stimulates binding of β-arrestin to the ProLink-tagged GPCR and forces complementation of the two enzyme fragments, resulting in the formation of an active β-gal enzyme. This interaction leads to an increase in enzyme activity that can be measured using chemiluminescent PathHunter® Detection Reagents.
# One day prior to the assay, cells were seeded in a total volume of 20 μl of growth medium into white walled 384-well microplates and incubated at 37° C./5% CO2 overnight. On the day of the assay, growth medium was removed and 20 μl assay buffer (HBSS+10 mM HEPES+0.1% heat-inactivated BSA) were added to each well.
# Test compounds were dissolved in 100% DMSO to a concentration of 10 mM to provide stock solutions. Serial dilutions were performed from stock solutions into assay buffer to obtain intermediate concentrations of 5-fold higher than the concentrations to be tested. 5 μl of the 5× compound solutions were added to the cells and the assay plates were incubated at 37° C. for 90 minutes. The final concentration of compounds tested in the assay ranged from 1.5 nM to 100 μM. Following incubation, 12.5 μl of PathHunter® detection reagent were added to each well, and plates were incubated at room temperature for 60 minutes. Chemiluminescence was read using an EnVision plate reader (PerkinElmer), raw data were expressed as relative light units (RLU).
# as §1
# T2 sequence (Q5NUL3 1-377 isoform Q5NUL3-1): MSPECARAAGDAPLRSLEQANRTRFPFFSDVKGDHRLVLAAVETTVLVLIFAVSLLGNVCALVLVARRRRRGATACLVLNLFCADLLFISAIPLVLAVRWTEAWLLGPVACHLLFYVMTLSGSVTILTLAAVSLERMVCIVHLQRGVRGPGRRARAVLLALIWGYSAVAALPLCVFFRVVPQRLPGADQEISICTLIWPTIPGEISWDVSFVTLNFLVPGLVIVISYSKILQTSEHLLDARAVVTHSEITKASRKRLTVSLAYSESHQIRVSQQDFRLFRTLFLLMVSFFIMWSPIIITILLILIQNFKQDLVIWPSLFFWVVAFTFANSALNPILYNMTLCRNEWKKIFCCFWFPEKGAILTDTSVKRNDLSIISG
# T2 sequence (P32121 whole entry partner): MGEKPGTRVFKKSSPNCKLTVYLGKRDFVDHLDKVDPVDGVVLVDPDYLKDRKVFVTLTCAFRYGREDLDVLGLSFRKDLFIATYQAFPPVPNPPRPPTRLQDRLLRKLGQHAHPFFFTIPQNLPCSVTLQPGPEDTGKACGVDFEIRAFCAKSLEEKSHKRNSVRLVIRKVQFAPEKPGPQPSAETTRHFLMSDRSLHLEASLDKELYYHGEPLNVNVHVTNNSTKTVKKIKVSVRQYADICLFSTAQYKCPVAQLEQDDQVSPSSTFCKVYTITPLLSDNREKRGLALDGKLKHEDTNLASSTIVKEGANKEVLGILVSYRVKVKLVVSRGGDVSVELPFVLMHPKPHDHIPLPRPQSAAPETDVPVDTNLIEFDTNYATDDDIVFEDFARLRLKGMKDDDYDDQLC
# Reported below in Table 1 are pEC50 values (pEC50=−log(EC50) from curve fit) for compounds of Formula I in this assay, β-Arr pEC50 Alternatively, percent activation at a single concentration is reported.
Structure (SMILES),EC50 [1] [nM],EC50 [2] [nM],β-Arr pEC50 [2]
O=S1(=O)c2ccccc2CN1c1ccnc(Oc2cccc(Cl)c2)n1 [Compound 22],> 100000,1580,–
Cc1cc(Oc2nccc(N3Cc4ccccc4S3(=O)=O)n2)ccc1Cl [Compound 35],> 100000,1580,–
O=S1(=O)c2ccccc2CN1c1ccnc(Oc2ccc(OC(F)(F)F)cc2Cl)n1 [Compound 36],7940,631,–
O=S1(=O)c2ccccc2CN1c1ccnc(Oc2ccc(F)cc2)n1 [Compound 42],316,1000,–
COc1ccc(Oc2nccc(N3Cc4ccccc4S3(=O)=O)n2)cc1 [Compound 44],1580,> 10000,–
O=S1(=O)c2ccccc2CN1c1ccnc(Oc2ccc(OCc3ccccc3)cc2)n1 [Compound 45],> 100000,1580,–
COc1cncc(Oc2nccc(N3Cc4ccccc4S3(=O)=O)n2)c1 [Compound 50],6310,5010,–
O=S1(=O)c2ccccc2CN1c1ccnc(Oc2cncc(Cl)c2)n1 [Compound 51],1000,–,–
O=S1(=O)c2ccccc2CN1c1ccnc(OC2CCC2)n1 [Compound 58],631,2510,–
CN1CCC(Oc2nccc(N3Cc4ccccc4S3(=O)=O)n2)C1 (centres unmarked) [Compound 63],> 100000,501,–
CCOc1nccc(N2Cc3ccccc3S2(=O)=O)n1 [Compound 67],6310,> 10000,–
COc1cc(Oc2cccnc2)nc(N2Cc3ccccc3S2(=O)=O)n1 [Compound 80],2510,501,–
CCc1cc(N2Cc3ccccc3S2(=O)=O)nc(Oc2cccnc2)n1 [Compound 82],1260,2510,–
Cc1cc(N2Cc3ccccc3S2(=O)=O)nc(Oc2ccc(Cl)cc2)n1 [Compound 86],398,251,–
CNC(=O)c1cc(N2Cc3ccccc3S2(=O)=O)nc(Oc2ccc(Cl)cc2)n1 [Compound 89],20000,2510,–
COc1cc(N2Cc3ccccc3S2(=O)=O)nc(OC2CC(F)(F)C2)n1 [Compound 93],631,–,–
COc1cc(Oc2ccc(Cl)cc2)nc(N2Cc3ccccc3S2(=O)=O)n1 [Compound 96],> 10000,1000,–
O=S1(=O)c2ccccc2CN1c1cccc(OC2CCC2)n1 [Compound 126],–,> 31600,–
O=C1c2ncccc2CN1c1cccc(Oc2cccnc2)n1 [Compound 127],–,> 31600,–
O=C1c2ccccc2CN1c1cccc(Oc2cccc(Cl)c2)n1 [Compound 130],–,> 31600,–
Cc1cc(Oc2cccnc2)nc(N2Cc3ccccc3S2(=O)=O)c1 [Compound 136],–,631,–
O=S1(=O)c2ccccc2CN1c1cc(C(F)(F)F)cc(Oc2cccnc2)n1 [Compound 140],–,1000,–
Cc1nc(Oc2ccc(Cl)cc2)nc(N2Cc3ccccc3S2(=O)=O)n1 [Compound 144],–,2000,–

# More lines, now with the values ahead:
EC50 [1] [nM],EC50 [2] [nM],β-Arr pEC50 [2],Structure (SMILES)
7940,–,–,O=S1(=O)c2ccccc2CN1c1ccnc(Oc2cccnc2)n1 [Compound 1]
1260,6310,–,O=S1(=O)c2ccccc2CN1c1ccnc(Oc2ccccc2)n1 [Compound 16]
794,5010,–,Cc1cncc(Oc2nccc(N3Cc4ccccc4S3(=O)=O)n2)c1 [Compound 19]
3980,6310,–,O=S1(=O)c2ccccc2CN1c1ccnc(Oc2ccccc2Cl)n1 [Compound 20]
501,> 7940,–,O=S1(=O)c2ccccc2CN1c1ccnc(Oc2ccc(Cl)cc2)n1 [Compound 21]
> 100000,–,–,O=S1(=O)c2ccccc2CN1c1ccnc(Oc2ccc(Cl)c(Cl)c2)n1 [Compound 33]
200,1580,–,Cc1ccc(Oc2nccc(N3Cc4ccccc4S3(=O)=O)n2)cc1Cl [Compound 34]
200,1000,–,O=S1(=O)c2ccccc2CN1c1ccnc(Oc2cccc(F)c2)n1 [Compound 37]
794,2510,–,O=S1(=O)c2ccccc2CN1c1ccnc(Oc2ccc(Br)cc2)n1 [Compound 41]
794,> 10000,–,O=S1(=O)c2ccccc2CN1c1ccnc(Oc2ccccc2F)n1 [Compound 56]
12600,6310,–,O=S1(=O)c2ccccc2CN1c1ccnc(OC2CCCCC2)n1 [Compound 59]
501,1580,–,O=S1(=O)c2ccccc2CN1c1ccnc(OC2CCCC2)n1 [Compound 60]
> 100000,> 31600,–,CN1CC(Oc2nccc(N3Cc4ccccc4S3(=O)=O)n2)C1 [Compound 61]
> 100000,> 10000,–,O=S1(=O)c2ccccc2CN1c1ccnc(OCc2ccccn2)n1 [Compound 72]
1000,2510,–,Cc1cc(N2Cc3ccccc3S2(=O)=O)nc(Oc2cccnc2)n1 [Compound 77]
3980,1580,–,O=S1(=O)c2ccccc2CN1c1cc(C(F)(F)F)nc(Oc2cccnc2)n1 [Compound 78]
501,1580,–,COc1cc(N2Cc3ccccc3S2(=O)=O)nc(Oc2cccnc2)n1 [Compound 79]
794,2510,–,O=S1(=O)c2ccccc2CN1c1cc(C2CC2)nc(Oc2cccnc2)n1 [Compound 83]
1580,794,–,Cc1cc(Oc2ccc(Cl)cc2)nc(N2Cc3ccccc3S2(=O)=O)n1 [Compound 87]
–,> 31600,–,COc1ccc2c(c1)S(=O)(=O)N(c1cccc(Oc3cccnc3)n1)C2 [Compound 132]
–,> 31600,–,COc1ccc2c(c1)CN(c1cccc(Oc3cccnc3)n1)S2(=O)=O [Compound 133]
–,> 10000,–,Cc1cc(Oc2cccnc2)nc(N2Cc3cccnc3C2=O)c1 [Compound 135]
–,2510,–,CNC(=O)c1cc(Oc2ccc(Cl)cc2)nc(N2Cc3ccccc3S2(=O)=O)c1 [Compound 137]
–,3160,–,CC(=O)Nc1cc(Oc2ccc(Cl)cc2)nc(N2Cc3ccccc3S2(=O)=O)c1 [Compound 138]
–,> 10000,–,CN(C)C(=O)c1cc(Oc2ccc(Cl)cc2)nc(N2Cc3ccccc3S2(=O)=O)c1 [Compound 139]
–,6310,–,O=S1(=O)c2ccccc2CN1c1cc(C(F)(F)F)cc(OC2CC(F)(F)C2)n1 [Compound 141]
–,–,<4.5,Cc1nc(Oc2ccc(Cl)cc2)nc(N2Cc3ccccc3S2(=O)=O)n1 [Compound 143]
–,15800,–,O=S1(=O)c2ccccc2CN1c1ncnc(Oc2cccnc2)n1 [Compound 146]

# — US12116362B2, “Monocyclic compounds useful as GPR120 modulators” (Valo Health, Inc., priority 2016, dated 2024)
